Results on 30 molecules are retold here after ChEMBL document CHEMBL1138705, “Tetrahydroisoquinoline derivatives as melatonin MT2 receptor antagonists” (Bioorg Med Chem Lett, 2004).

The term IC50 denotes the midpoint of a concentration-inhibition curve. High values mean lower potency, low ones higher potency.

In assay [1] the target is T1, Melatonin receptor type 1B (Homo sapiens, UniProt P49286).
T1 sequence (P49286 whole entry): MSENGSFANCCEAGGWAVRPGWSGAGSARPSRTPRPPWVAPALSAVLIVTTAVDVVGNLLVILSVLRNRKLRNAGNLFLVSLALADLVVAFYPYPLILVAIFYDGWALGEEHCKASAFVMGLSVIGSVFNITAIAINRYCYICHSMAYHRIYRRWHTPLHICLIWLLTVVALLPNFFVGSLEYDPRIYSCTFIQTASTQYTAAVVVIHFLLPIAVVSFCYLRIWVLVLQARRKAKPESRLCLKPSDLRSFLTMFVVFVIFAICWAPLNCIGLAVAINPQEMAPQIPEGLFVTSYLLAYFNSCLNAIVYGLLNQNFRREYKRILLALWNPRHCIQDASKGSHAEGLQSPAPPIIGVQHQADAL
Nature of the assay: Inhibitory concentration against Melatonin receptor type 1B.

Assay [2] has as its target Melatonin receptor type 1A (Homo sapiens, UniProt P48039). Nature of the assay: Inhibitory concentration against Melatonin receptor type 1A.

The structures appear in SMILES notation.

Melatonin receptor type 1A, sequence (P48039 whole entry): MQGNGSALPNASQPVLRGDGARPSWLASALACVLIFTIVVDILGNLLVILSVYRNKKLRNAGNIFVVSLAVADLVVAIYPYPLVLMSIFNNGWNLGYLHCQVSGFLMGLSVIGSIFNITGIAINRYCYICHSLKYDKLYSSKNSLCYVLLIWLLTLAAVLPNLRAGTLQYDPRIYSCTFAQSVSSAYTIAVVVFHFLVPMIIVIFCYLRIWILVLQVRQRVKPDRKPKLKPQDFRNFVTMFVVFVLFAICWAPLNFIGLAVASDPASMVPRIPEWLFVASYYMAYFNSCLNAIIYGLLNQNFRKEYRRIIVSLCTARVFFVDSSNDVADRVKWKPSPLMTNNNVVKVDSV

As for `COc1ccc2c(c1)CCN(C(C)=O)C2CC(c1ccccc1)c1ccccc1` (stereo unspecified), the IC50 is 270 nM in assay [1] and greater than 1000 nM in assay [2]. Taken in the same sequence, the figures for `COc1cc2c(c(OC)c1)C(CC(c1ccccc1)c1ccccc1)N(C(C)=O)CC2` (stereo unspecified) were 45 nM and greater than 1000 nM.

Take `COc1ccc2c(c1)C(CC(c1ccccc1)c1ccccc1)N(C(C)=O)CC2` (stereo unspecified): the IC50 in assay [1] stood at 5.5 nM; in assay [2] it was 512 nM. The matching figures for `CCCC(=O)N1CCc2cc(OC)c(OC)cc2C1CC(c1ccccc1)c1ccccc1` (stereo unspecified): 79 nM and greater than 1000 nM. As for `COc1cccc2c1CCN(C(C)=O)C2CC(c1ccccc1)c1ccccc1` (stereo unspecified), the IC50 in assay [1] and in assay [2] was greater than 1000 nM each time. `COc1cc2c(cc1OC)C(CC(c1ccccc1)c1ccccc1)N(C(=O)C(F)(F)F)CC2` (stereo unspecified): the IC50 was 100 nM in assay [1] and greater than 1000 nM in assay [2]. Taken in the same sequence, the figures for `COc1cc2c(cc1OC)C(CC(c1ccccc1)c1ccccc1)N(C(C)=O)CC2` (stereo unspecified) were 9.7 nM and greater than 1000 nM.

Regarding `CC(=O)N1CCc2cc(F)ccc2C1CC(c1ccccc1)c1ccccc1` (stereo unspecified), the IC50 was 140 nM in assay [1] and greater than 1000 nM in assay [2]. The matching figures for `COC(=O)N1CCc2cc(OC)c(OC)cc2C1CC(c1ccccc1)c1ccccc1` (stereo unspecified): 22 nM and 673 nM.

In assay [1], `CCCCCCC(=O)N1CCc2cc(OC)c(OC)cc2C1CC(c1ccccc1)c1ccccc1` (stereo unspecified) returned a half-inhibitory concentration (IC50) of 400 nM. Take `COc1ccc2c(c1OC)CCN(C(C)=O)C2CC(c1ccccc1)c1ccccc1` (stereo unspecified): the IC50 in assay [1] and in assay [2] was greater than 1000 nM throughout. In assay [1], `COc1cc2c(cc1OC)C(CC(c1ccccc1)c1ccccc1)N(C(=O)C1CCC1)CC2` (stereo in doubt; 1m) returned an IC50 of 240 nM. For the molecule `CNC(=O)N1CCc2cc(OC)c(OC)cc2C1CC(c1ccccc1)c1ccccc1` (stereo unspecified), the IC50 is 60 nM in assay [1] and greater than 1000 nM in assay [2]. For `COc1cc2c(cc1OC)C(CC(c1ccccc1)c1ccccc1)N(C=O)CC2` (stereo unspecified), the IC50 is 9.9 nM in assay [1] and 621 nM in assay [2]. The matching figures for `COc1cc2c(cc1OC)C(CCc1ccccc1)N(C(C)=O)CC2` (stereo unspecified): 76 nM and greater than 1000 nM. For the molecule `CCC(=O)N1CCc2cc(OC)c(OC)cc2C1CC(c1ccccc1)c1ccccc1` (stereo unspecified), the results for the IC50 in assay [1] and in assay [2] were 62 nM and greater than 1000 nM, respectively. `COc1cc2c(cc1OC)C(CCc1ccccc1)N(C(=O)C1CCC1)CC2` (stereo unspecified): the IC50 in assay [1] turned out to be 24 nM. On the same count and under the same terms, the value for `COc1cc2c(cc1OC)C(CC(c1ccccc1)c1ccccc1)N(C(=O)C1CCC1)CC2` (stereo in doubt; 1j) was 310 nM; that for `COc1cc2c(cc1OC)C(CCc1ccccc1)N(C(=O)c1ccc(C(F)(F)F)cc1)CC2` (stereo unspecified) was 1000 nM; that for `COc1cc2c(cc1OC)C(CC(c1ccccc1)c1ccccc1)N(C(=O)c1ccc(C(F)(F)F)cc1)CC2` (stereo unspecified) was 810 nM.

On to `CC(=O)N1CCc2ccccc2C1CC(c1ccccc1)c1ccccc1` (stereo unspecified), for which the IC50 in assay [1] and in assay [2] was greater than 1000 nM in each case.

Turning to `COc1cc2c(cc1Br)CCN(C(C)=O)C2CC(c1ccccc1)c1ccccc1` (stereo unspecified), the values for the half-inhibitory concentration (IC50) in assay [1] and in assay [2] were 24 nM and 230 nM, respectively.

Molecule `COc1cc2c(cc1OC)C(CCc1ccccc1)N(C(=O)C1CCCCC1)CC2` (stereo unspecified) gave a half-inhibitory concentration (IC50) in assay [1] of 220 nM.

Consider `COc1cc2c(cc1OC)C(CC(c1ccccc1)c1ccccc1)N(C(=O)c1ccccc1)CC2` (stereo unspecified), for which the IC50 is 120 nM in assay [1] and greater than 1000 nM in assay [2]. As for `CCCCCC(=O)N1CCc2cc(OC)c(OC)cc2C1CC(c1ccccc1)c1ccccc1` (stereo unspecified), the IC50 in assay [1] is 280 nM.

In turn, `COc1cc2c(cc1OC)C(CC(c1ccccc1)c1ccccc1)N(C(=O)C1CCCCC1)CC2` (stereo unspecified) showed a half-inhibitory concentration (IC50) in assay [1] of 370 nM. For the molecule `CC(=O)N1CCc2c(ccc3c2CCO3)C1CC(c1ccccc1)c1ccccc1` (stereo unspecified), the IC50 in assay [1] and in assay [2] was greater than 1000 nM throughout. With `COc1cc2c(cc1OC)C(CCc1ccccc1)N(C(N)=O)CC2` (stereo unspecified), the figures for the IC50 in assay [1] and in assay [2] were 160 nM and greater than 1000 nM, respectively. The matching figures for `COc1cc2c(cc1OC)C(CCc1ccccc1)N(C=O)CC2` (stereo unspecified): 83 nM and greater than 1000 nM. For the molecule `COc1cc2c(cc1OC)C(CC(c1ccccc1)c1ccccc1)N(C(N)=O)CC2` (stereo unspecified), the IC50 in assay [1] was 30 nM; in assay [2], greater than 1000 nM.
